Measurements taken from paper PMC7613998, “Development of selective inhibitors of phosphatidylinositol 3-kinase C2α” (Nature Chemical Biology, 2022).
Like-named read-outs stand apart in the source and are kept apart here.

Tests used:
Experiment in all cases: biochemical
PI4K2A (PI4K2 alpha) = PI4K2A (PI4K2 alpha) (Homo sapiens, UniProt Q9BTU6); parameters: SelectScreen Adapta purified lipid kinase panel, 1 uM compound, 10 uM ATP, per cent inhibition; details: ATP=10; Technology=Adapta; 10 uM ATP
Description: (§1) As PI3KC2α is related to other PI3Ks and to PI3K-like protein kinases such as mTOR, the selectivity of PITCOINs was determined in a panel of biochemical assays. […] Finally, the high specificity of PITCOINs for PI3KC2α was verified by Kinobead profiling experiments. In this approach, the ability of PITCOINs to compete the affinity capture of cellular kinases on immobilized nonselective kinase inhibitors (Kinobeads) is analyzed by mass spectrometry (MS)[31]. […] Four nonkinase weak off-targets were globally found for the three inhibitors with only FECH[32] common to the three PITCOINs (Supplementary Dataset).  Extended Data Fig. 2 Lipid kinase inhibitor profile of PITCOIN1-3. (a–c) Selectivity profiling of PITCOIN1-3 (1 µM) with purified lipid kinases in the presence of 10 µM ATP. […] Data are presented as mean ± SD from two independent experiments. (d, e) IC50 measurements of PITCOIN1-3 against purified recombinant class I PI3K p110α/p85α (d) or purified class III PI3K VPS34 complex II (e). 10 µM ATP and 20 µM PIP3 (for p110α/p85α) or 200 µM PI (for VPS34 complex II) were used as substrates. […] Data are presented as mean ± SD from two independent experiments. Source data

PI4K2B (PI4K2 beta) = PI4K2B (PI4K2 beta) (Homo sapiens, UniProt Q8TCG2); parameters: SelectScreen Adapta purified lipid kinase panel, 1 uM compound, 10 uM ATP, per cent inhibition; details: ATP=10; Technology=Adapta; 10 uM ATP
Description: as §1

PI4KA (PI4K alpha) = PI4KA (PI4K alpha) (Homo sapiens, UniProt P42356); parameters: SelectScreen Adapta purified lipid kinase panel, 1 uM compound, 10 uM ATP, per cent inhibition; details: ATP=10; Technology=Adapta; 10 uM ATP
Sequence of PI4KA (PI4K alpha) (P42356 whole entry): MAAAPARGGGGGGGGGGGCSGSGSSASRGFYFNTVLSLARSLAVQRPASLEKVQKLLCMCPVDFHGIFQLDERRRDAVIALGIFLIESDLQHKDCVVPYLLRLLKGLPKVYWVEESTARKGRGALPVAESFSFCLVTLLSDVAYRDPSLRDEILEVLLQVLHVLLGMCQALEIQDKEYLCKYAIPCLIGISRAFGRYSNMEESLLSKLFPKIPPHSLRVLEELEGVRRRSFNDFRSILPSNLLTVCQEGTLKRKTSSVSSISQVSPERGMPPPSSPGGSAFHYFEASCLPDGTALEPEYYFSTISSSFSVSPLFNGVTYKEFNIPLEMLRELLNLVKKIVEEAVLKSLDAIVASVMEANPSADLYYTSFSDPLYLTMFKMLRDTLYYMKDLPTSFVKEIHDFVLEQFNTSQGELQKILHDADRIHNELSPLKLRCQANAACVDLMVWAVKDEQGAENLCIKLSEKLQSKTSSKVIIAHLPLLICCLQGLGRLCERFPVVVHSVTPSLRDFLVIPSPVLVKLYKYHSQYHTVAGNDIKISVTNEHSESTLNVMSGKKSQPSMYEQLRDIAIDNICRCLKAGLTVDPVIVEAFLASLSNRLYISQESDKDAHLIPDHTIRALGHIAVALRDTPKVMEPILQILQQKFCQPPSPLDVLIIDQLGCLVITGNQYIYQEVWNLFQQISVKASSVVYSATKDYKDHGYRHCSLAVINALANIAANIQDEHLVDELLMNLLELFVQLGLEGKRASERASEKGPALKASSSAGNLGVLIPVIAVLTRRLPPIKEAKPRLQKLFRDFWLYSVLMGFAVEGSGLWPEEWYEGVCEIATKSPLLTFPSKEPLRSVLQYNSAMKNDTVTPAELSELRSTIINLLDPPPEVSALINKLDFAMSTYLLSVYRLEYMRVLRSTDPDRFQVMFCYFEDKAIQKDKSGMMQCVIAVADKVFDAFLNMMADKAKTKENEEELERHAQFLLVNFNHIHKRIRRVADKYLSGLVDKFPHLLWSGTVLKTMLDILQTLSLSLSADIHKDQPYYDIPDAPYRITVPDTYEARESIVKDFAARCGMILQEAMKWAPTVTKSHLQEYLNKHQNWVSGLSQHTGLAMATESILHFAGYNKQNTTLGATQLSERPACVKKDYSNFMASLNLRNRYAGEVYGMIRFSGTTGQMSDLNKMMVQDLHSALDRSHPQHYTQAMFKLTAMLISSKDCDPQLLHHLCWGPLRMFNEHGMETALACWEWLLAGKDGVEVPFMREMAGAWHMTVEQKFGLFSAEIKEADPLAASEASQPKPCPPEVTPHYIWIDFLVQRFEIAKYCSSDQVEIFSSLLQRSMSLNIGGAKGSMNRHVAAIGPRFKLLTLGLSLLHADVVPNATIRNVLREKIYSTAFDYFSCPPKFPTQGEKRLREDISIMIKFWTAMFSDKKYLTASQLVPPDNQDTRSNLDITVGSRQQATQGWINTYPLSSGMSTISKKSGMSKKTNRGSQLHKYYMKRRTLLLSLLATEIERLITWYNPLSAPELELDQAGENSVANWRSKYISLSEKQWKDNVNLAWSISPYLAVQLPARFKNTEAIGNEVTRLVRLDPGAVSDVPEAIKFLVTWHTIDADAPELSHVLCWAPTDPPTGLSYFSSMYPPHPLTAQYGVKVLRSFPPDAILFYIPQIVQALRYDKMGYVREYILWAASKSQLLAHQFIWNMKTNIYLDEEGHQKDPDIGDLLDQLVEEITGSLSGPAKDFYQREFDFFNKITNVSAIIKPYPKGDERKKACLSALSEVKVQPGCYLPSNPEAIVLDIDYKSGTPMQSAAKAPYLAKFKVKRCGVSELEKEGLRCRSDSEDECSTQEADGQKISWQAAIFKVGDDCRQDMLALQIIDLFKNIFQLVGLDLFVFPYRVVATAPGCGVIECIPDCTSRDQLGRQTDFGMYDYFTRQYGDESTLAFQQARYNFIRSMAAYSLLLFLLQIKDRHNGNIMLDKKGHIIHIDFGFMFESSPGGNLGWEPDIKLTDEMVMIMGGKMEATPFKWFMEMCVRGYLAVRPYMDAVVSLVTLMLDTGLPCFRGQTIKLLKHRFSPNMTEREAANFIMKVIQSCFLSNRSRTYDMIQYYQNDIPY
Description: as §1

PIK3C2A (PI3K-C2 alpha) = PIK3C2A (PI3K-C2 alpha) (Homo sapiens, UniProt O00443); parameters: SelectScreen Adapta purified lipid kinase panel, 1 uM compound, 10 uM ATP, per cent inhibition; details: ATP=10; Technology=Adapta; 10 uM ATP; 1 µM; inhibitor
Description: as §1

[1] = molecular target: PIK3CA E542K/PIK3R1 (p110 alpha E542K/p85 alpha) (Homo sapiens, UniProt P42336, E542K); parameters: SelectScreen Adapta purified lipid kinase panel, 1 uM compound, 10 uM ATP, per cent inhibition; details: ATP=10; Technology=Adapta; 10 uM ATP
Sequence of PIK3CA E542K/PIK3R1 (p110 alpha E542K/p85 alpha) (P42336 whole entry E542K): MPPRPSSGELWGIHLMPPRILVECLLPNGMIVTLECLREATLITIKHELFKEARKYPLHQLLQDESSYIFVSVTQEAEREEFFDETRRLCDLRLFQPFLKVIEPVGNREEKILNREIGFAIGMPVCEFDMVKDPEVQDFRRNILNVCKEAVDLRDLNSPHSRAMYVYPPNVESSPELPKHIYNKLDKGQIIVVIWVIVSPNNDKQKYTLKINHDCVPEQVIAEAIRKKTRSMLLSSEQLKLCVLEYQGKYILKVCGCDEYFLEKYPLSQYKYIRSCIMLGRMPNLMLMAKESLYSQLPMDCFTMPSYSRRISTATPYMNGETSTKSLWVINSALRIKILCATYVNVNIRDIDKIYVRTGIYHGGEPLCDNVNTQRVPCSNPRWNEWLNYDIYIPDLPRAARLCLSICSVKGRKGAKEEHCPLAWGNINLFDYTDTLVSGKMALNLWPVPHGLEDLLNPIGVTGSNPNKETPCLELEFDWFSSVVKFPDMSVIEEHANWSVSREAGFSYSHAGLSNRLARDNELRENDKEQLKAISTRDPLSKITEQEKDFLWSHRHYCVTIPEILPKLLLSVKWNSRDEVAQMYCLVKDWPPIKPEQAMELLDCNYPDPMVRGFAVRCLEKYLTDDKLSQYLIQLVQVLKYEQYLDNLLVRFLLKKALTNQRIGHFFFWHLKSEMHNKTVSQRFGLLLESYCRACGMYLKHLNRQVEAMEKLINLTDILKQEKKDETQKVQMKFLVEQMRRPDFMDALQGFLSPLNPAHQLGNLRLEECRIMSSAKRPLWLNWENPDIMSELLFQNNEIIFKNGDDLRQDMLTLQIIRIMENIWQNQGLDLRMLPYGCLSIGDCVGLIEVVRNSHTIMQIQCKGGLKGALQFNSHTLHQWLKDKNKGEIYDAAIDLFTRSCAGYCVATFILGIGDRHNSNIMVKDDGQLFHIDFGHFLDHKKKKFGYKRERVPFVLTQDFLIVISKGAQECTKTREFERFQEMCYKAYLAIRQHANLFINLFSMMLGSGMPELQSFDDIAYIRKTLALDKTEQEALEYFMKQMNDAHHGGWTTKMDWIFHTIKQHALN
Sequence of PIK3CA E542K/PIK3R1 (p110 alpha E542K/p85 alpha) (P27986 whole entry partner): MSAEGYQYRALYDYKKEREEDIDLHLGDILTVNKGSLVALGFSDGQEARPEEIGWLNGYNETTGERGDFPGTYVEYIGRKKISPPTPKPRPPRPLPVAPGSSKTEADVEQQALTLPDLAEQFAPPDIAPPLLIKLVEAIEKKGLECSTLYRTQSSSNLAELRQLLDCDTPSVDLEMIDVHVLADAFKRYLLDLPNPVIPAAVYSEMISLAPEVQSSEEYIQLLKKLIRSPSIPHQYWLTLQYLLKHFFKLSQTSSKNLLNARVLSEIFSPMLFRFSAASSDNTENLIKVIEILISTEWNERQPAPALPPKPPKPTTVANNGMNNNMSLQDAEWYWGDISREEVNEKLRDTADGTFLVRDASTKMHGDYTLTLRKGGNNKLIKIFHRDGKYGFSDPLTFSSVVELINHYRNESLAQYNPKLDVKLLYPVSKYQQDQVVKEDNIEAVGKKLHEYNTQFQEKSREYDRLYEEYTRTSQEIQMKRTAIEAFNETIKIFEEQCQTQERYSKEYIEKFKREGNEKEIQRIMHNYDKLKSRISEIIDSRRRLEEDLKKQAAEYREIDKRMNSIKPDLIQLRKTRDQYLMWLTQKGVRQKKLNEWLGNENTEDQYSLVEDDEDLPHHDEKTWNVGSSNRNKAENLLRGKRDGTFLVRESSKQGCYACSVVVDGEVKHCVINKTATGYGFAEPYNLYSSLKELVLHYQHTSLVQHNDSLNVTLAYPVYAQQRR
Description: as §1

[2] = molecular target: PIK3CA/PIK3R1 (p110 alpha/p85 alpha) (Homo sapiens, UniProt P42336); parameters: SelectScreen Adapta purified lipid kinase panel, 1 uM compound, 10 uM ATP, per cent inhibition; details: ATP=10; Technology=Adapta; 10 uM ATP
Sequence of PIK3CA/PIK3R1 (p110 alpha/p85 alpha) (P42336 whole entry): as the sequence (P42336 whole entry E542K) above, with K542E counted along it
Sequence of PIK3CA/PIK3R1 (p110 alpha/p85 alpha) (P27986 whole entry partner): as the sequence (P27986 whole entry partner) above
Description: as §1

[3] = molecular target: PIK3CB/PIK3R1 (p110 beta/p85 alpha) (Homo sapiens, UniProt P42338); parameters: SelectScreen Adapta purified lipid kinase panel, 1 uM compound, 10 uM ATP, per cent inhibition; details: ATP=10; Technology=Adapta; 10 uM ATP
Sequence of PIK3CB/PIK3R1 (p110 beta/p85 alpha) (P42338 whole entry): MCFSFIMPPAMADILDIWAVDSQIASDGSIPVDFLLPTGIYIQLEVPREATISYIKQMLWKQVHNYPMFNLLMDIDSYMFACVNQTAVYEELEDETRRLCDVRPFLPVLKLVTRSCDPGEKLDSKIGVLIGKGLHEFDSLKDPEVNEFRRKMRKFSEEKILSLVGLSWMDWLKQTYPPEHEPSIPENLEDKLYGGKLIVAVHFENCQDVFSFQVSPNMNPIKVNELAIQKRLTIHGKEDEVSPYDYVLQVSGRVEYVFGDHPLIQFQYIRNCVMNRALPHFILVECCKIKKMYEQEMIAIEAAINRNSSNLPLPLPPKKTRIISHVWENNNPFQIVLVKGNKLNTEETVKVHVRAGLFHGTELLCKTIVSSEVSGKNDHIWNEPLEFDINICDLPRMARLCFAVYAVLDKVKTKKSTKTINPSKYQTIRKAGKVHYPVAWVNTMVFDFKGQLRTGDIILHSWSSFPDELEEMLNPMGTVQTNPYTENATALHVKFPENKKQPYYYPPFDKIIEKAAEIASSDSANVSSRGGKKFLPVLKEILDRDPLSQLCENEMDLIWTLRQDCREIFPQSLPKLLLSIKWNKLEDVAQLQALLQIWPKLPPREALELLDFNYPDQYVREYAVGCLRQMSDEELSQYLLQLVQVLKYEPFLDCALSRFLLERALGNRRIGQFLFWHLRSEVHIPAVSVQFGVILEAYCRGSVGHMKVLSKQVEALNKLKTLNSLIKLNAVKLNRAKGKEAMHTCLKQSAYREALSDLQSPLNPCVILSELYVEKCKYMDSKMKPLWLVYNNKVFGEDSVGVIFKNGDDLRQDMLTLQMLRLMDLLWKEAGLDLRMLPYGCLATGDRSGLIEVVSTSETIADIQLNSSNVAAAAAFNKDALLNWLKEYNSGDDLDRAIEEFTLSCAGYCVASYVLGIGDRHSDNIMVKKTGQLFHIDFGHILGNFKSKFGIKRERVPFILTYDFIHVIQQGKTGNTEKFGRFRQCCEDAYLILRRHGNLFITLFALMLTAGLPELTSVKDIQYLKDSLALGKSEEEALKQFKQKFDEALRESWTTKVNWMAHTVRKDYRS
Sequence of PIK3CB/PIK3R1 (p110 beta/p85 alpha) (P27986 whole entry partner): as the sequence (P27986 whole entry partner) above
Description: as §1

[4] = molecular target: PIK3CB/PIK3R2 (p110 beta/p85 beta) (Homo sapiens, UniProt P42338); parameters: SelectScreen Adapta purified lipid kinase panel, 1 uM compound, 10 uM ATP, per cent inhibition; details: ATP=10; Technology=Adapta; 10 uM ATP
Description: as §1

SPHK1 = SPHK1 (Homo sapiens, UniProt Q9NYA1); parameters: SelectScreen Adapta purified lipid kinase panel, 1 uM compound, 10 uM ATP, per cent inhibition; details: ATP=10; Technology=Adapta; 10 uM ATP
Description: as §1

SPHK2 = molecular target: T1, SPHK2 (Homo sapiens, UniProt Q9NRA0); parameters: SelectScreen Adapta purified lipid kinase panel, 1 uM compound, 10 uM ATP, per cent inhibition; details: ATP=10; Technology=Adapta; 10 uM ATP
T1 sequence (Q9NRA0 1-654): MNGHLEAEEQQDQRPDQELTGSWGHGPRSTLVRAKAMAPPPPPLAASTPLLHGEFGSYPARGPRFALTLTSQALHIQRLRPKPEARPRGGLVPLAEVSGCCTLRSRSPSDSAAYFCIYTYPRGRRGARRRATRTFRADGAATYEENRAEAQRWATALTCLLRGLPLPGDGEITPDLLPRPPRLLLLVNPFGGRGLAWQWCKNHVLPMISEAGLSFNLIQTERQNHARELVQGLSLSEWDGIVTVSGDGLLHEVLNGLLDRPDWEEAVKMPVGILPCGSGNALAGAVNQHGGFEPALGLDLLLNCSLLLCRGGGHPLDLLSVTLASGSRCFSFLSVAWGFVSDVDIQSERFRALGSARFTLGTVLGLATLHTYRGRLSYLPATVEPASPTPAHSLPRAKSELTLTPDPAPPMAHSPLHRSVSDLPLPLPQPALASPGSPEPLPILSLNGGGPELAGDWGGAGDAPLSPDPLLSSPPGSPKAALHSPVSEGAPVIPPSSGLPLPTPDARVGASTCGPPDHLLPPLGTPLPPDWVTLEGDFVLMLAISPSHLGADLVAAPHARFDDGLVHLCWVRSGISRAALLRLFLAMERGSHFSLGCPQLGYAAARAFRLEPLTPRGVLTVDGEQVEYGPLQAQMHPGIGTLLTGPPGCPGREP
Description: as §1

FRAP1 (mTOR) = FRAP1 (mTOR) (Homo sapiens, UniProt P42345); parameters: SelectScreen Z'-LYTE mTOR kinase assay, 1 uM compound, 10 uM ATP, per cent inhibition; details: ATP=10; Technology=ZLYTE; 10 uM ATP
Description: as §1

VPS34 complex II = molecular target: T2, VPS34 complex II (Homo sapiens, UniProt Q8NEB9); parameters: Lipid kinase activity assay on purified class I PI3K or VPS34 complex II, 10 uM ATP
T2 construct: gene PIK3C3
Description: Extended Data Fig. 2 Lipid kinase inhibitor profile of PITCOIN1-3. (a–c) Selectivity profiling of PITCOIN1-3 (1 µM) with purified lipid kinases in the presence of 10 µM ATP. […] Data are presented as mean ± SD from two independent experiments. (d, e) IC50 measurements of PITCOIN1-3 against purified recombinant class I PI3K p110α/p85α (d) or purified class III PI3K VPS34 complex II (e). 10 µM ATP and 20 µM PIP3 (for p110α/p85α) or 200 µM PI (for VPS34 complex II) were used as substrates. […] Data are presented as mean ± SD from two independent experiments. Source data

Row | inhibition at 1 µM (PI4K2A (PI4K2 alpha)) | inhibition at 1 µM (PI4K2B (PI4K2 beta)) | inhibition at 1 µM (PI4KA (PI4K alpha)) | % Inhibition Avg (PIK3C2A (PI3K-C2 alpha)) | inhibition at 1 µM [1] | inhibition at 1 µM [2] | inhibition at 1 µM [3] | inhibition at 1 µM [4] | inhibition at 1 µM (SPHK1) | inhibition at 1 µM (SPHK2) | inhibition at 1 µM (FRAP1 (mTOR)) | IC50 (VPS34 complex II; read-out: PITCOIN3 (IC50)) | IC50 (VPS34 complex II; read-out: PITCOIN1 (IC50)) | IC50 (VPS34 complex II; read-out: PITCOIN2 (IC50)) | SMILES
1 | 1% | 8% | 5% | 83% | 14% | 17% | 12% | 7% | -1% | -5% | 4% | > 10 µM | – | – | CS(=O)(=O)Nc1cccc(-c2csc(NC(=O)CSc3nc4nccnc4c(=O)n3CCc3ccccc3)n2)c1 [compound 3, PITCOIN3]
2 | 8% | 4% | 1% | 88% | 5% | 5% | 10% | 3% | -1% | 9% | 8% | – | > 10 µM | – | O=C(CSc1nc2nccnc2c(=O)n1CCc1ccccc1)Nc1nccs1 [compound 1, PITCOIN1]
3 | 4% | -5% | -9% | 87% | 9% | -1% | 13% | -2% | -6% | -1% | 5% | – | – | > 10 µM | O=C(CSc1nc2nccnc2c(=O)n1CCc1ccccc1)Nc1nc(-c2cccc(O)c2)cs1 [compound 2, PITCOIN2]
